Series [1] concerns CYP2D6. As to conditions: cited from earlier work.
A short description of another series: Bioequivalence test. The conditions noted are these: for AUC / Cmax: human, in vivo; for AUCτ test/reference ratio [90 % CI] / Cmax test/reference ratio [90 % CI]: LDX + VXR Day 30 vs VXR alone Day 15, Treatment Arm B.
Series [2] deals with CYP2D6. As to the kind of experiment: In vivo CYP2D6 interaction, VXR as CYP2D6 substrate coadministered with LDX. As to conditions: inferred from VEN increase and ODV decrease with LDX + VXR coadministration.
The next series is described as follows: Vital signs. Format: in vivo, human. As to conditions: single treatment (LDX alone Arm A; VXR alone Arm B).
A short description of series [3]: Plasma pharmacokinetics of LDX, d-amphetamine, VEN and ODV. The conditions noted are these: mean (SD), day 15.
A short description of series [4]: Treatment-emergent adverse events. In kind it is in vivo, human.
In series [5] the test system is cytochrome P450 (CYP) isoenzyme. The conditions noted are these: any CYP isoenzyme tested to date; cited from earlier work.
The mark [6] stands for this setting: treatment arms combined, LDX alone n = 40 and VXR alone n = 37 during dose titration periods, LDX + VXR n = 67.

Several values for one entry are separate records, joined by “and”; a condition that tells them apart may be missing. Equal values may be shown once.

Here are results for 4 compounds from paper PMC3608883 (Clinical Drug Investigation, 2013).

As a reminder, the AUC is the area under the concentration-time curve, a measure of exposure. Consider `C[C@H](N)Cc1ccccc1` [d-Amphetamine, dextroamphetamine], for which the “Inhibition of CYP2D6 activity” value in the series on CYP2D6 [1] is recorded as “weakly inhibits”. Also, in “Bioequivalence test” (70 mg/day), the AUC worked out at 1110 ng·h/mL and the Cmax is 85.9 ng/mL. For the same compound, in the series on CYP2D6 [2], the “Inhibition of CYP2D6 activity, from current pharmacokinetic findings” value is given as “weak inhibitor”.

`CS(=O)(=O)O.CS(=O)(=O)O.C[C@@H](Cc1ccccc1)NC(=O)[C@@H](N)CCCCN` [LDX, Lisdexamfetamine dimesylate]: in “Vital signs”, the “Maximum mean increase in DBP” value is given as approximately 6 mmHg, the “Maximum mean increase in SBP” value was approximately 7 mmHg and the “Maximum mean increase in pulse rate” value is “approximately 13 beats/min”. In series [3] (after LDX alone 70 mg/day), the AUCτ is on record as 65.5 (44.0) ng·h/mL, the Cmax is recorded as 49.1 (32.25) ng/mL, the tmax is on record as 1.1 (0.3) h and the t½ was 0.4 (0.1) h. In series [4] (one participant, LDX 30 mg/day), the “Time to resolution of serious AE (presyncope)” value is not above 10 min. In series [4] (setting [6]), the “Any TEAE” value is listed as 33 (82.5) n (%), the “TEAE Anorexia” value is given as 12 (30.0) n (%), the “TEAE Anxiety” value was 5 (12.5) n (%) and the “TEAE Back pain” value is recorded as 2 (5.0) n (%). For the same compound, in series [4] (setting [6]), the “TEAE Chest pain” value is on record as 3 (7.5) n (%), the “TEAE Constipation” value was 3 (7.5) n (%), the “TEAE Diarrhoea” value is given as 2 (5.0) n (%) and the “TEAE Dizziness” value is 3 (7.5) n (%). Further, in series [4] (setting [6]), the “TEAE Dry mouth” value is on record as 10 (25.0) n (%), the “TEAE Dyspnoea” value is 2 (5.0) n (%), the “TEAE Epistaxis” value was 0 (0.0) n (%) and the “TEAE Euphoric mood” value is listed as 3 (7.5) n (%). In series [4] (setting [6]), the “TEAE Headache” value was 7 (17.5) n (%), the “TEAE Insomnia” value is 7 (17.5) n (%), the “TEAE Libido decreased” value is reported as 0 (0.0) n (%) and the “TEAE Nausea” value was 6 (15.0) n (%). For the same compound, in series [4] (setting [6]), the “TEAE Palpitations” value was 8 (20.0) n (%), the “TEAE Somnolence” value was 7 (17.5) n (%), the “TEAE Stomach discomfort” value is on record as 2 (5.0) n (%) and the “TEAE Testicular pain” value is on record as 0 (0.0) n (%). For the same compound, in series [4] (setting [6]), the “TEAE Urinary hesitation” value was 0 (0.0) n (%) and the “TEAE Vision blurred” value was 2 (5.0) n (%). Further, in series [5], the “Inhibition of CYP isoenzymes” value is reported as “does not inhibit”.

As for `COc1ccc(C(CN(C)C)C2(O)CCCCC2)cc1` (centres unmarked) [VEN, Venlafaxine], the tmax in series [3] (after VXR alone 225 mg/day) is given as 6.4 (0.8) h. In “Bioequivalence test”, the “AUCτ test/reference ratio [90 % CI]” value is 1.13 [0.88, 1.45] and 1.129 [0.88, 1.45]; the “Cmax test/reference ratio [90 % CI]” value was 1.10 [0.88, 1.38] and 1.103 [0.881, 1.38]. Further, the “Geometric least squares mean Cmax” value in the series “Bioequivalence test” (VXR alone, Day 15, Treatment Arm B) came to 180.7 ng/mL. Also, the AUC in “Bioequivalence test” (225 mg/day) worked out at 2410 ng·h/mL.

In the case of `CN(C)CC(c1ccc(O)cc1)C1(O)CCCCC1` (centres unmarked) [ODV, O-desmethylvenlafaxine], in the series “Bioequivalence test”, the “AUCτ test/reference ratio [90 % CI]” value was 0.83 [0.71, 0.96] and 0.826 [0.713, 0.956]; the “Cmax test/reference ratio [90 % CI]” value was 0.907 [0.777, 1.058]. For the same compound, in the series “Bioequivalence test” (225 mg/day), the exposure (AUC) amounted to 8080 ng·h/mL and the Cmax was determined as 392 ng/mL.
